One may read the IC50 as the concentration that inhibits the measured activity by half.

Here are results for 23 molecules from patent publication US10308639B2, “Phosphatidylinositol 3-kinase inhibitors” (Gilead Sciences, Inc., priority 2014, dated 2019).

Like-named read-outs stand apart in the source and are kept apart here.

Holding throughout (format): biochemical
One test concerns the target T1, PI3Kβ (Homo sapiens, UniProt P42338).
T1 construct: made in house
The test can be described thus: TR-FRET enzymatic activity assay, PI3Kβ.

In a further test the target is T2, PI3Kδ (Homo sapiens, UniProt O00329).
T2 construct: made in house
As to the kind of experiment: TR-FRET enzymatic activity assay, PI3Kδ. Background: In TR-FRET formats the signal depends on donor and acceptor labels being close together.

A further test has as its target T3, PI3Kγ (Homo sapiens, UniProt P48736).
T3 construct: made in house
The test can be described thus: TR-FRET enzymatic activity assay, PI3Kγ. To be noted: read-out: PI3Kγ IC50. As for the experimental part: The compounds of formula (I) were characterized for their enzymatic activity against the PI3K isoforms. The activities were measured using a time-resolved fluorescence resonance energy transfer (TR-FRET) assay.

Setting [1] is: Table 2, TR-FRET, 2x Km ATP, 30 minutes at 25° C.

T3 sequence (P48736 whole entry): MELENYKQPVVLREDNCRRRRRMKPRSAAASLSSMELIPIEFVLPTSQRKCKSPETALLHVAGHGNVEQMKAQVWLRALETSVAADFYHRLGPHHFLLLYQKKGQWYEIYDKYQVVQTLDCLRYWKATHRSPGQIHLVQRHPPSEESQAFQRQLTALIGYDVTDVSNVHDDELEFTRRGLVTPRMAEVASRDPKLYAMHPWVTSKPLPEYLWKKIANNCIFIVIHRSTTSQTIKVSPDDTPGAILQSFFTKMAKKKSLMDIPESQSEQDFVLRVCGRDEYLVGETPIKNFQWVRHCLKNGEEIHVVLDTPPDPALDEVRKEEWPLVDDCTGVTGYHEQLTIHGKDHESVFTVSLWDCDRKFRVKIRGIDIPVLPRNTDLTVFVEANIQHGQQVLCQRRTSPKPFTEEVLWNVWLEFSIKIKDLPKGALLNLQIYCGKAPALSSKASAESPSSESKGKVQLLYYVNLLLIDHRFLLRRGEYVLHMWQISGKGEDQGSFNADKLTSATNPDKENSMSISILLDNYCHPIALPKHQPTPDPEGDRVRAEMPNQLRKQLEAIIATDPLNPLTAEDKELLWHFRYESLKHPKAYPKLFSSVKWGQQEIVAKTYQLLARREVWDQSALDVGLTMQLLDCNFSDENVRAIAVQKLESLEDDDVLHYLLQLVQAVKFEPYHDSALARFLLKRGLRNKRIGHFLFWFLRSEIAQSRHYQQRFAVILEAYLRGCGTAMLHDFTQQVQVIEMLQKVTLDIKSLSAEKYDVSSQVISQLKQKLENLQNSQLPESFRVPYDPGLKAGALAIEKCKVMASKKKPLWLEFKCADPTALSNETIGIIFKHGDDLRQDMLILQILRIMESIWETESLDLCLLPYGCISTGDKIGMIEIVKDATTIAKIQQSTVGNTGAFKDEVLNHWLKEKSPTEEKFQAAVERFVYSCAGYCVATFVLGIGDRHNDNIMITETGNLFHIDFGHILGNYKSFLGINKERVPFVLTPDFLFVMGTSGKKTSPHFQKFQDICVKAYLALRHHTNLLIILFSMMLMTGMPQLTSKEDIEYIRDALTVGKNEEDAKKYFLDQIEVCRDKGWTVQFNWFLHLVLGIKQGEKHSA
T2 sequence (O00329 whole entry): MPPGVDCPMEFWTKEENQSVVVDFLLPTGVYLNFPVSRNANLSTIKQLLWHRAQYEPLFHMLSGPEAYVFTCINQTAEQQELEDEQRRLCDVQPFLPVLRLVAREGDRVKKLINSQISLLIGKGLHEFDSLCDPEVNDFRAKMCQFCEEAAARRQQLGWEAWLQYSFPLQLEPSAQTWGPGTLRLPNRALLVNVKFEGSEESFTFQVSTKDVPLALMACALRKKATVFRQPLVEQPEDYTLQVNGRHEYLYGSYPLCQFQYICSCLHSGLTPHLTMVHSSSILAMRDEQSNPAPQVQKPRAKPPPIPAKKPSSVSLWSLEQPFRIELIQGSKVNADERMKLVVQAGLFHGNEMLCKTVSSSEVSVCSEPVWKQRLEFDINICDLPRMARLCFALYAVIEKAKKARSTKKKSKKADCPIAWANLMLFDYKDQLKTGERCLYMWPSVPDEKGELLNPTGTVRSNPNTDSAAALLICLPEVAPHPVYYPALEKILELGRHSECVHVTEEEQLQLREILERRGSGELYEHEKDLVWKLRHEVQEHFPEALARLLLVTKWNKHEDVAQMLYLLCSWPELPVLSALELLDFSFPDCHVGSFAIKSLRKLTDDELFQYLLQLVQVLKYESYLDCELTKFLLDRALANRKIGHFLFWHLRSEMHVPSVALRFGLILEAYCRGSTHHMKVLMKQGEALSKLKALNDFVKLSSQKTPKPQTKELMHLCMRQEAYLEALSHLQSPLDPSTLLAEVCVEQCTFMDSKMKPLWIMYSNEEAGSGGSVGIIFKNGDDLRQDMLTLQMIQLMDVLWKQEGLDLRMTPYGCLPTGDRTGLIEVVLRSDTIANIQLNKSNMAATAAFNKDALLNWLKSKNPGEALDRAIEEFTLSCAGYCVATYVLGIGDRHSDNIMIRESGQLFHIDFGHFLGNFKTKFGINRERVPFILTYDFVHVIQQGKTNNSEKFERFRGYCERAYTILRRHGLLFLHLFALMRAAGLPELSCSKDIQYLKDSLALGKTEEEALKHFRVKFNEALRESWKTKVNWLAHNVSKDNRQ
T2 sequence (P27986 whole entry partner): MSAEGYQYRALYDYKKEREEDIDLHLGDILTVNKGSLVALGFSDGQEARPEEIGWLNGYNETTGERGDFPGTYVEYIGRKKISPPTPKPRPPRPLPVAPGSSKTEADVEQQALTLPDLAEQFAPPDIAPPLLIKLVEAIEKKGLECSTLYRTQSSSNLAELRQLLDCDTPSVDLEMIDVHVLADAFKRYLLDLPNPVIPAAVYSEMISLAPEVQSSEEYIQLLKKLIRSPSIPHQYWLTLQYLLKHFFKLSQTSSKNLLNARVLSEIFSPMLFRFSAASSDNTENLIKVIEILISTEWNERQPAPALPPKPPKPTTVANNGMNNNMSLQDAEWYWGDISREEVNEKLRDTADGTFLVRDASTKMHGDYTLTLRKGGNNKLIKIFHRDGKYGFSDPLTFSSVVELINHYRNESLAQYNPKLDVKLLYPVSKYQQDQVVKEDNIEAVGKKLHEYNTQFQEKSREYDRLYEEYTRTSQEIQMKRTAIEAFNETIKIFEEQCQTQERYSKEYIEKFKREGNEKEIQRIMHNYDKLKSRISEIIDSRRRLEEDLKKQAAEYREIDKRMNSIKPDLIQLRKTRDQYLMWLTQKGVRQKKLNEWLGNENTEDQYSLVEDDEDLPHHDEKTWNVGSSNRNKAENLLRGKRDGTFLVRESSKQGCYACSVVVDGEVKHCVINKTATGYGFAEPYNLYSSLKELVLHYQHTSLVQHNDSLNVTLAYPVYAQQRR
T1 sequence (P42338 whole entry): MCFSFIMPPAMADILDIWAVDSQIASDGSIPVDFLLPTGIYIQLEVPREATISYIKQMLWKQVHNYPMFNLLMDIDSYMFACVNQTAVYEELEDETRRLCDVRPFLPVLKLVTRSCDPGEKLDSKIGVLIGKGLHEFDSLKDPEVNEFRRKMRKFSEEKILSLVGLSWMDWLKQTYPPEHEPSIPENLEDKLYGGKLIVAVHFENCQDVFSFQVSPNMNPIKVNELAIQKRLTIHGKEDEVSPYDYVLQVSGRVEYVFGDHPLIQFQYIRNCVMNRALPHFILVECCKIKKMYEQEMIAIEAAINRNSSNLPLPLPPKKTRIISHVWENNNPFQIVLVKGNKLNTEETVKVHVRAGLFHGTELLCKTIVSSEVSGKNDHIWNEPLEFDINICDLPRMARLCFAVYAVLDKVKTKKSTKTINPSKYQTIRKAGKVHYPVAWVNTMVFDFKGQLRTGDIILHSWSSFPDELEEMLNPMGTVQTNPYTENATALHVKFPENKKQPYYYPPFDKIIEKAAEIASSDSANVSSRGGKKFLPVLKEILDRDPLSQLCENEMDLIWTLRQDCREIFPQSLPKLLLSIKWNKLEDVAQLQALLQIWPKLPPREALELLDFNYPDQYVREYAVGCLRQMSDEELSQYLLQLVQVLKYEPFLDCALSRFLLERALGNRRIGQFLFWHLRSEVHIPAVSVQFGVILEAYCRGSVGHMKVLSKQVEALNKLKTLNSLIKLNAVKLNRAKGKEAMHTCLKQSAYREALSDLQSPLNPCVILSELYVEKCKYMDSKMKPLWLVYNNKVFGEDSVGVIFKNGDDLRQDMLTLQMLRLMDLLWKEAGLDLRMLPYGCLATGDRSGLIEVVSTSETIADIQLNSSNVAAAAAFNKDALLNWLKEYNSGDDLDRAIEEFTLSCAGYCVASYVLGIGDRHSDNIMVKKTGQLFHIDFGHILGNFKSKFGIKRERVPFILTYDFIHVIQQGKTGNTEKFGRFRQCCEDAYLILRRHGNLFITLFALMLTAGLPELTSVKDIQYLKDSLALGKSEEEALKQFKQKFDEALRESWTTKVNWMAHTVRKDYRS
T1 sequence (P27986 whole entry partner): as the sequence (P27986 whole entry partner) above

For `Cc1n[nH]cc1-n1c([C@H](C)Nc2nc(N)nc(N)c2C#N)nc2c(Cl)ccc(Cl)c2c1=O` [Compound 219, (S)-2,4-diamino-6-((1-(5,8-dichloro-3-(3-methyl-1H-pyrazol-4-yl)-4-oxo-3,4-dihydroquinazolin-2-yl)ethyl)amino)pyrimidine-5-carbonitrile], the IC50 at PI3Kβ (Table 2a, same assay) was found to be 6 nM; on PI3Kδ (Table 2a, same assay) it was 1 nM; on PI3Kγ (Table 2a, same assay), 420 nM.
On to `CC[C@H](Nc1ncnc2scnc12)c1nc2c(C#N)cccc2c(=O)n1-c1cc[nH]n1` [Compound 74, (S)-4-oxo-3-(1H-pyrazol-3-yl)-2-(1-(thiazolo[5,4-d]pyrimidin-7-ylamino)propyl)-3,4-dihydroquinazoline-8-carbonitrile], for which the IC50 at PI3Kβ (setting [1]) was 20 nM; against PI3Kδ (setting [1]), 5 nM; at PI3Kγ, over 10000 nM.
As for `C[C@H](Nc1nc(N)nc(C(F)F)c1C#N)c1nc2c(F)ccc(F)c2c(=O)n1-c1cc[nH]n1` [Compound 192, (S)-2-amino-4-((1-(5,8-difluoro-4-oxo-3-(1H-pyrazol-3-yl)-3,4-dihydroquinazolin-2-yl)ethyl)amino)-6-(difluoromethyl)pyrimidine-5-carbonitrile], the IC50 on PI3Kβ (Table 2a, same assay) was 62 nM; at PI3Kδ (Table 2a, same assay) it was 21 nM; on PI3Kγ (Table 2a, same assay), 4700 nM.
The corresponding values for `C[C@H](Nc1nc(N)nc(N)c1Cl)c1nc2c(Cl)cccc2c(=O)n1-c1cc[nH]n1` [Compound 156, (S)-8-chloro-2-(1-((2,6-diamino-5-chloropyrimidin-4-yl)amino)ethyl)-3-(1H-pyrazol-3-yl)quinazolin-4(3H)-one] are 26 nM, 9 nM and over 10000 nM.
In the case of `C[C@H](Nc1nc(C(F)F)nc(N)c1C#N)c1nc2cccc(Cl)c2c(=O)n1-c1cc[nH]n1` [Compound 197, (S)-4-amino-6-((1-(5-chloro-4-oxo-3-(1H-pyrazol-3-yl)-3,4-dihydroquinazolin-2-yl)ethyl)amino)-2-(difluoromethyl)pyrimidine-5-carbonitrile], the concentration for half-maximal inhibition (IC50) on PI3Kβ (Table 2a, same assay) is 700 nM; at PI3Kδ (Table 2a, same assay), 540 nM; at PI3Kγ (Table 2a, same assay) it was over 10000 nM.
As to `CC[C@H](Nc1ncnc2scnc12)c1nc2cccc(S(C)(=O)=O)c2c(=O)n1-c1cc[nH]n1` [Compound 87, (S)-5-(methylsulfonyl)-3-(1H-pyrazol-3-yl)-2-(1-(thiazolo[5,4-d]pyrimidin-7-ylamino)propyl)quinazolin-4(3H)-one], the half-maximal inhibitory concentration (IC50) is 70 nM on PI3Kβ (setting [1]), 0.4 nM at PI3Kδ (setting [1]) and 8200 nM on PI3Kγ (setting [1]).
The corresponding values for `Cc1nc(N)nc(N[C@@H](c2ccccc2)c2nc3cccc(Cl)c3c(=O)n2-c2cc[nH]n2)c1C#N` [Compound 110, (S)-2-amino-4-(((5-chloro-4-oxo-3-(1H-pyrazol-3-yl)-3,4-dihydroquinazolin-2-yl)(phenyl)methyl)amino)-6-methylpyrimidine-5-carbonitrile] are 4 nM, 1 nM and 410 nM.
Regarding `C[C@H](Nc1nc(N)nc(N)c1C#N)c1nc2cccc(C(F)F)c2c(=O)n1-c1cn[nH]c1` [Compound 212, (S)-2,4-diamino-6-((1-(5-(difluoromethyl)-4-oxo-3-(1H-pyrazol-4-yl)-3,4-dihydroquinazolin-2-yl)ethyl)amino)pyrimidine-5-carbonitrile], the IC50 at PI3Kβ (Table 2a, same assay) was found to be 1 nM; against PI3Kδ (Table 2a, same assay), 0.7 nM; on PI3Kγ (Table 2a, same assay) it was 34 nM.
In the case of `CC[C@H](Nc1nc(N)nc(N)c1C#N)c1nc2cccc(C#N)c2c(=O)n1-c1cc[nH]n1` [Compound 97, (S)-2-(1-((2,6-diamino-5-cyanopyrimidin-4-yl)amino)propyl)-4-oxo-3-(1H-pyrazol-3-yl)-3,4-dihydroquinazoline-5-carbonitrile], the concentration for half-maximal inhibition (IC50) at PI3Kβ (setting [1]) is 17 nM; against PI3Kδ (setting [1]), 16 nM; at PI3Kγ (setting [1]) it was 3700 nM.
For `Cc1ccc(Cl)c2nc([C@H](C)Nc3nc(N)nc(N)c3C#N)n(-c3cc[nH]n3)c(=O)c12` [Compound 222, (S)-2,4-diamino-6-((1-(8-chloro-5-methyl-4-oxo-3-(1H-pyrazol-3-yl)-3,4-dihydroquinazolin-2-yl)ethyl)amino)pyrimidine-5-carbonitrile], the IC50 was 0.6 nM against PI3Kβ (Table 2a, same assay); 0.2 nM against PI3Kδ (Table 2a, same assay); 360 nM at PI3Kγ (Table 2a, same assay).
The corresponding values for `C[C@H](Nc1nc(N)nc(N)c1Cl)c1nc2c(C(F)(F)F)cccc2c(=O)n1-c1cc[nH]n1` [Compound 136, (S)-2-(1-((2,6-diamino-5-chloropyrimidin-4-yl)amino)ethyl)-3-(1H-pyrazol-3-yl)-8-(trifluoromethyl)quinazolin-4(3H)-one] are 9 nM, 11 nM and 5500 nM.
For the molecule `N#Cc1c(N[C@H](c2nc3c(F)ccc(Cl)c3c(=O)n2-c2cc[nH]n2)C2CC2)nc(N)nc1C(F)F` [Compound 194, (S)-2-amino-4-(((5-chloro-8-fluoro-4-oxo-3-(1H-pyrazol-3-yl)-3,4-dihydroquinazolin-2-yl)(cyclopropyl)methyl)amino)-6-(difluoromethyl)pyrimidine-5-carbonitrile], the IC50 at PI3Kβ (Table 2a, same assay) is 23 nM; against PI3Kδ (Table 2a, same assay) it was 20 nM; on PI3Kγ (Table 2a, same assay), 2200 nM.
Turning to `CCC[C@H](Nc1nc(N)nc(N)c1C#N)c1nc2cccc(Cl)c2c(=O)n1-c1cn[nH]c1` [Compound 249, (S)-2,4-diamino-6-((1-(5-chloro-4-oxo-3-(1H-pyrazol-4-yl)-3,4-dihydroquinazolin-2-yl)butyl)amino)pyrimidine-5-carbonitrile], the IC50 against PI3Kβ (Table 2a, same assay) was found to be 3 nM; on PI3Kδ (Table 2a, same assay) it was 1 nM; at PI3Kγ (Table 2a, same assay) it was 160 nM.
As to `CC[C@H](Nc1ncnc2cccnc12)c1nc2c(Cl)ccc(Cl)c2c(=O)n1-c1cn[nH]c1` [Compound 41, (S)-5,8-dichloro-3-(1H-pyrazol-4-yl)-2-(1-(pyrido[3,2-d]pyrimidin-4-ylamino)propyl)quinazolin-4(3H)-one], the results for the concentration for half-maximal inhibition (IC50) at PI3Kβ (setting [1]), against PI3Kδ (setting [1]) and at PI3Kγ (setting [1]) were 88 nM, 13 nM and 1600 nM, respectively.
With `N#Cc1c(N)nc(N)nc1N[C@H](c1nc2c(C(F)(F)F)cccc2c(=O)n1-c1cc[nH]n1)C1CC1` [Compound 133, (S)-2,4-diamino-6-((cyclopropyl(4-oxo-3-(1H-pyrazol-3-yl)-8-(trifluoromethyl)-3,4-dihydroquinazolin-2-yl)methyl)amino)pyrimidine-5-carbonitrile], the IC50 at PI3Kβ (Table 2a, same assay) came to 2 nM; against PI3Kδ (Table 2a, same assay), 3 nM; on PI3Kγ (Table 2a, same assay) it was 474 nM.
For `Nc1nc(N)c(Cl)c(N[C@H](c2nc3cccc(Cl)c3c(=O)n2-c2cn[nH]c2)C2CC2)n1` [Compound 19, (S)-5-chloro-2-(cyclopropyl((2,6-diamino-5-chloropyrimidin-4-yl)amino)methyl)-3-(1H-pyrazol-4-yl)quinazolin-4(3H)-one], the values for the IC50 against PI3Kβ (setting [1]), against PI3Kδ (setting [1]) and at PI3Kγ (setting [1]) were 32 nM, 6 nM and 1700 nM, respectively.
Take `CC[C@H](Nc1nc(N)nc(N)c1Cl)c1nc2c(C#N)cccc2c(=O)n1-c1cn[nH]c1` [Compound 95, (S)-2-(1-((2,6-diamino-5-chloropyrimidin-4-yl)amino)propyl)-4-oxo-3-(1H-pyrazol-4-yl)-3,4-dihydroquinazoline-8-carbonitrile]: the figures for the IC50 on PI3Kβ (setting [1]), on PI3Kδ (setting [1]) and at PI3Kγ were 1700 nM, 300 nM and over 10000 nM, respectively.
In the case of `CCC[C@H](Nc1nc(N)nc(N)c1C#N)c1nc2c(Cl)ccc(Cl)c2c(=O)n1-c1cn[nH]c1` [Compound 251, (S)-2,4-diamino-6-((1-(5,8-dichloro-4-oxo-3-(1H-pyrazol-4-yl)-3,4-dihydroquinazolin-2-yl)butyl)amino)pyrimidine-5-carbonitrile], the half-inhibitory concentration (IC50) against PI3Kβ (Table 2a, same assay) is 10 nM; at PI3Kδ (Table 2a, same assay), 2 nM; on PI3Kγ (Table 2a, same assay) it was 770 nM.
Turning to `C[C@H](Nc1ncnc2sncc12)c1nc2cccc(Cl)c2c(=O)n1-c1cc[nH]n1` [Compound 167, (S)-5-chloro-2-(1-(isothiazolo[5,4-d]pyrimidin-4-ylamino)ethyl)-3-(1H-pyrazol-3-yl)quinazolin-4(3H)-one], the half-maximal inhibitory concentration (IC50) at PI3Kβ (Table 2a, same assay) is 110 nM; against PI3Kδ (Table 2a, same assay) it was 18 nM; at PI3Kγ (Table 2a, same assay), over 10000 nM.
Take `Nc1nc(N)c(Cl)c(N[C@H](c2nc3c(C(F)(F)F)cccc3c(=O)n2-c2cc[nH]n2)C2CC2)n1` [Compound 134, (S)-2-(cyclopropyl((2,6-diamino-5-chloropyrimidin-4-yl)amino)methyl)-3-(1H-pyrazol-3-yl)-8-(trifluoromethyl)quinazolin-4(3H)-one]: the IC50 against PI3Kβ (Table 2a, same assay) was found to be 37 nM; against PI3Kδ (Table 2a, same assay), 24 nM; at PI3Kγ (Table 2a, same assay), 9300 nM.
As for `C[C@H](Nc1ncnc(N)c1Cl)c1nc2cccc(Cl)c2c(=O)n1-c1cc[nH]n1` [Compound 164, (S)-2-(1-((6-amino-5-chloropyrimidin-4-yl)amino)ethyl)-5-chloro-3-(1H-pyrazol-3-yl)quinazolin-4(3H)-one], the half-inhibitory concentration (IC50) on PI3Kβ (Table 2a, same assay) is 3 nM; against PI3Kδ (Table 2a, same assay), 0.6 nM; on PI3Kγ (Table 2a, same assay) it was 4300 nM.
For `C[C@H](Nc1nc(N)nc(N)c1Cl)c1nc2c(Cl)ccc(F)c2c(=O)n1-c1cc[nH]n1` [Compound 147, (S)-8-chloro-2-(1-((2,6-diamino-5-chloropyrimidin-4-yl)amino)ethyl)-5-fluoro-3-(1H-pyrazol-3-yl)quinazolin-4(3H)-one], the IC50 at PI3Kβ (Table 2a, same assay) is 14 nM; on PI3Kδ (Table 2a, same assay), 15 nM; on PI3Kγ (Table 2a, same assay) it was over 10000 nM.
For the molecule `C[C@H](Nc1nc(N)nc(N)c1C#N)c1nc2c(C(F)(F)F)cccc2c(=O)n1-c1cc[nH]n1` [Compound 135, (S)-2,4-diamino-6-((1-(4-oxo-3-(1H-pyrazol-3-yl)-8-(trifluoromethyl)-3,4-dihydroquinazolin-2-yl)ethyl)amino)pyrimidine-5-carbonitrile], the IC50 is 2 nM at PI3Kβ (Table 2a, same assay); 1 nM against PI3Kδ (Table 2a, same assay); 340 nM on PI3Kγ (Table 2a, same assay).
